Test results reported in patent US20210000912A1, “Compositions And Methods For Prophylaxis Or Treatment Of Pain” (Interk Peptide Therapeutics Limited, priority 2017, published 2021).

Experiments:
PKG1β (h) = target: T1, PKG1β (h) (Homo sapiens, UniProt Q13976); assay: PKG1β kinase activity assay, cell free; type: biochemical
T1 construct: purchased Eurofins Pharma Discovery Services UK Ltd (contract assay service)
T1 sequence (Q13976 1-686 isoform Q13976-2): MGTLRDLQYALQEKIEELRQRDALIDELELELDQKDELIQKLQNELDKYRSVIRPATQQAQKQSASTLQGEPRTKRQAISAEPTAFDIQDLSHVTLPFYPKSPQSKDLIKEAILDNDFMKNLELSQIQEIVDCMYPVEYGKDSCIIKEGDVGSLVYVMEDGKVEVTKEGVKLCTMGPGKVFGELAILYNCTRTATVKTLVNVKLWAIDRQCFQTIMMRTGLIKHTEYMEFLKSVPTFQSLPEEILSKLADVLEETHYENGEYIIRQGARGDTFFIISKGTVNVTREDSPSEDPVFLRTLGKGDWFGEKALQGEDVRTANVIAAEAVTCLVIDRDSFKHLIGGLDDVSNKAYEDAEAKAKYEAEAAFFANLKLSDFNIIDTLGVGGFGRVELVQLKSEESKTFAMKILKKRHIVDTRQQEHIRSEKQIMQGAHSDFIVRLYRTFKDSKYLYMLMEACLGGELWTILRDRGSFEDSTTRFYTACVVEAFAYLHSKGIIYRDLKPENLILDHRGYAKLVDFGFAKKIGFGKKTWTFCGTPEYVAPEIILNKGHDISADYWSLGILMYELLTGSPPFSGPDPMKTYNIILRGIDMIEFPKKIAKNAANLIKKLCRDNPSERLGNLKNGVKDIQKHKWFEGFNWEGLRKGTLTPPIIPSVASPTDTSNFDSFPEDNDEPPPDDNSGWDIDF
Procedure: The capacity of test peptides to inhibit the activity of the kinases PKG1α, PKG1β, and Src family kinases in a cell free assay was assessed. The test peptides were amidated at their C-terminal end (indicated by “—NH2”) unless otherwise noted. Kinase activity assays were conducted by Eurofins Pharma Discovery Services UK Ltd (Dundee Technology Park, Dundee, United Kingdom) and Reaction Biology Corp. (Malvern, Pa., USA).
All test peptides are prepared to 50× final assay concentration in 100% DMSO. This working stock of the test compound is added to assay wells as the first component in the reaction, followed by the remaining components of the respective assay protocols described below. There is no pre-incubation step between the test peptide and the kinase prior to initiation of the reaction. The kinases are diluted in buffer (20 mM MOPS, 1 mM EDTA, 0.01% Brij-35, 5% Glycerol, 0.1% β-mercaptoethanol, 1 mg/mL BSA) prior to addition to the reaction mix.
Positive control wells contain all components of the reaction, except the test peptide of interest. However, DMSO (at a final concentration of 2%) is included in positive control wells to control for solvent effects. Negative control wells contain all components of the reaction, with a reference inhibitor (staurosporine) replacing the test peptide. This abolishes kinase activity and establishes a base-line (0% kinase activity). Kinase assay protocols (Eurofins Pharma Discovery Services UK Ltd, Dundee Technology Park, Dundee, United Kingdom) are described below. Of the Src family kinases, only the assay protocol for c-Src is shown.
PKG1b(h) is incubated with 8 mM MOPS pH 7.0, 0.2 mM EDTA, 10 μM cGMP, 200 μM RRRLSFAEPG, 10 mM magnesium acetate and [γ-^33P]-ATP (specific activity approx. 500 cpm/pmol, concentration as required). The reaction is initiated by the addition of the MgATP mix. After incubation for 40 minutes at room temperature, the reaction is stopped by the addition of 3% phosphoric acid solution. A 10 μL aliquot of the reaction is then spotted onto a P30 filtermat and washed three times for 5 mins in 75 mM phosphoric acid and once in methanol prior to drying and scintillation counting.

nerve injured rats = assay: Intrathecal testing in neuropathic pain model, von Frey paw withdrawal threshold; type: in vivo, Sprague-Dawley rats; conditions: administered intrathecally, on a molar basis
Procedure: Experiments were performed on male Sprague-Dawley rats weighing 300-400 g at the start of experiments. Animals were housed 2 or 3 per cage until cannula surgery, after which time they were singly housed for 4 days until the day of experiment. Animals were maintained on standard 12-h light/dark cycle with food and water available ad libitum.
After baseline von Frey measures were taken, animals underwent partial nerve ligation (PNL) surgery, as previously described (Seltzer, Z., Dubner, R., Shir, Y., 1990. A novel behavioural-model of neuropathic pain disorders produced in rats by partial sciatic-nerve injury. Pain 43, 205-218). Briefly, animals were deeply anaesthetised using isoflurane (2.0-2.5% in oxygen), and the sciatic nerve of the left hind-leg was exposed via blunt dissection of the biceps femoris at a site near the trochanter, just distal to the posterior biceps semitendinosus nerve branches of the common sciatic nerve. A 6-0 silk suture was used to tightly ligate the dorsal 30-50% of the nerve. […]
Mechanical paw withdrawal threshold (PWT) was measured using a series of von Frey hairs with bending pressures ranging from 0.41 to 15.1 g. […] The mechanical PWT was calculated using the up-down paradigm (Dixon, W. J., 1980. Efficient analysis of experimental-observations. Annual Review of Pharmacology and Toxicology 20, 441-462). […]

N=C(N)NCCC[C@H](NC(=O)[C@H](CCCNC(=N)N)NC(=O)[C@H](CCCNC(=N)N)NC(=O)[C@H](CCCNC(=N)N)NC(=O)[C@H](CCCNC(=N)N)NC(=O)[C@H](CCCNC(=N)N)NC(=O)[C@H](CCCNC(=N)N)NC(=O)[C@H](CCCNC(=N)N)NC(=O)[C@H](CCCNC(=N)N)NC(=O)[C@H](CCCNC(=N)N)NC(=O)[C@H](CCCNC(=N)N)NC(=O)[C@H](CCCNC(=N)N)NC(=O)[C@H](CCCNC(=N)N)NC(=O)[C@@H](N)CCCNC(=N)N)C(N)=O [IK01400, RRRRRRRRRRRRRR-NH2]
IC50 (PKG1β (h)): 5.3 nM | PKG1β IC50 (PKG1β (h); cell free, 10 μM cGMP, 40 minutes at room temperature): single digit nanomolar range | alleviating neuropathic pain (ipsilateral von Frey PWT) compared to morphine (nerve injured rats): more effective in alleviating neuropathic pain than morphine on a molar basis
